# Experiments:
# [1] = biological target: Neuronal acetylcholine receptor; alpha9/alpha10 (Homo sapiens, UniProt Q9GZZ6+Q9UGM1); assay: Antagonist activity at human alpha9alpha10 nAChR expressed in Xenopus laevis oocytes assessed as inhibition of ACh-induced current amplitude at -80 mV holding potential by two-electrode voltage clamp method; assay type: cell-based, Oocyte
# [2] = biological target: T1, Neuronal acetylcholine receptor; alpha9/alpha10 (Homo sapiens) (UniProt Q9UGM1+Q9GZZ6); assay: Antagonist activity at human alpha9alpha10 nAChR expressed in Xenopus laevis oocytes assessed as inhibition of ACh-induced current amplitude at -80 mV holding potential at 1 uM by two-electrode voltage clamp method; assay type: cell-based; details: Oocyte
# [3] = biological target: T1, Neuronal acetylcholine receptor; alpha9/alpha10 (Homo sapiens); assay: Antagonist activity at human alpha9alpha10 nAChR expressed in Xenopus laevis oocytes assessed as inhibition of ACh-induced current amplitude at -80 mV holding potential at 10 uM by two-electrode voltage clamp method; assay type: cell-based; details: Oocyte
# Chain of Neuronal acetylcholine receptor; alpha9/alpha10 (Q9UGM1 whole entry): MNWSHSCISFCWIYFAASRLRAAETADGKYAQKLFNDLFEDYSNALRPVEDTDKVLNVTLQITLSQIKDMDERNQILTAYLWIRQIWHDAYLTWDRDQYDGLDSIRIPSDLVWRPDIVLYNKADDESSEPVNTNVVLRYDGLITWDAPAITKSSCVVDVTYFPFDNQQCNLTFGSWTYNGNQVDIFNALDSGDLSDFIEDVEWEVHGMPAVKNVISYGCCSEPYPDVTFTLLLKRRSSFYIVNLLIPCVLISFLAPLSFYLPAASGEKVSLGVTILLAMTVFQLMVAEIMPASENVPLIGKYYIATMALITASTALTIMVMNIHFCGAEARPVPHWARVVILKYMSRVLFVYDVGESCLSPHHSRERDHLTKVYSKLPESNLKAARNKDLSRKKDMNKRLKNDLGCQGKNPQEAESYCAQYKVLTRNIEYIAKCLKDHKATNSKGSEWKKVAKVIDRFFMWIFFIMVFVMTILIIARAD
# Chain of Neuronal acetylcholine receptor; alpha9/alpha10 (Q9GZZ6 whole entry): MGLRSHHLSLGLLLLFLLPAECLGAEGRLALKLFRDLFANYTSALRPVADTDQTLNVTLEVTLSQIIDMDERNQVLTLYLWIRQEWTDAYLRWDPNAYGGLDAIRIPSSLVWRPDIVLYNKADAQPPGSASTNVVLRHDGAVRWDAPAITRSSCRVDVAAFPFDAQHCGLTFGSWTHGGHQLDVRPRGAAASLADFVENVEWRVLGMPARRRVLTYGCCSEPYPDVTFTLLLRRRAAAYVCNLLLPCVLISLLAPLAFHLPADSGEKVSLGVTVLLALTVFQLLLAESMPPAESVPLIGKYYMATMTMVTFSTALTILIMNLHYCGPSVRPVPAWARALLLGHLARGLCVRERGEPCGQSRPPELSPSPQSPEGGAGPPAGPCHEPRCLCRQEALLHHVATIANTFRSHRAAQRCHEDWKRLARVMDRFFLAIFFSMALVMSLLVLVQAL
Compound,IC50 [1],inhibition [2],inhibition [3]
N=C(N)NCCC[C@H](NC(=O)[C@H](CS)NC(=O)[C@H](CCCNC(=N)N)NC(=O)[C@H](Cc1ccc(O)cc1)NC(=O)[C@H](CCCNC(=N)N)NC(=O)[C@H](CS)NC(=O)[C@H](CCCNC(=N)N)NC(=O)[C@@H]1CCCN1C(=O)[C@H](CC(=O)O)NC(=O)[C@H](CO)NC(=O)[C@H](CS)NC(=O)[C@H](CS)NC(=O)CN)C(=O)O,500 nM,,
CC[C@H](C)[C@@H]1NC(=O)[C@H](CCC(=O)O)NC(=O)[C@@H]2CCCN2C(=O)[C@H](Cc2cnc[nH]2)NC(=O)[C@H](CC(=O)O)NC(=O)[C@H](Cc2ccc(O)cc2)NC(=O)[C@H](CC(N)=O)NC(=O)[C@@H]2CSSC[C@H](NC(=O)CN)C(=O)N[C@@H](CSSC[C@@H](C(N)=O)NC1=O)C(=O)N[C@@H](CO)C(=O)N[C@@H](CC(=O)O)C(=O)N1CCC[C@H]1C(=O)N[C@@H](CCCNC(=N)N)C(=O)N2,,20%,0%
